From US20230211020A1, “TREATMENT OF INFECTIONS” (ACT Therapeutics Ltd, priority 2020, published 2023)

Columns and labels:
[1] = Tissue specific uptake of Evans Blue in thigh muscle with ACT (Example 2, Study 1); assay type: in vivo; details: for EB ratio of the left (treated) to right (untreated) thigh muscle, average±SD: 30 min after treatment; for increase in the uptake upon ACT treatment: US insonated tissue vs. untreated
Procedure: The tissue specific uptake of Evans Blue (EB, a fluorescent dye) has been investigated in a mouse model. Under physiologic conditions, the endothelium is impermeable to albumin, and Evans blue bound albumin remains confined within blood vessels. Thus, Evans blue is often used as a model compound in drug delivery studies [Bohmer et al., J Controlled Release, 148, Issue 1, 2010, pp. 18-24].
Female Balb/c nude mice were used. Before treatment, the mice were administered surgical anesthesia by subcutaneous injection of a mix of Fentanyl (0.05 mg/kg), Midazolam (5 mg/kg), and Medetomidine (0.5 mg/kg). An intravenous cannula (BD Neoflon™ 24 GA) was placed in the tail vein. Patency was verified by injection of a slight amount of 0.9% sodium chloride for injection after which a small amount of heparin (10 U/ml) was injection to prevent clotting. The hub of the cannula was filled with 0.9% sodium chloride for injection to eliminate any dead space and closed with a cap. The cannula was secured to the tail with surgical tape.
Evans Blue solution (50 mg EB/kg) was injected i.v. followed immediately by 2 ml/kg of the cluster dispersion as detailed in Example 1. Two groups where compared (N=3 for each group): 1) EB+cluster dispersion and 2) EB+cluster dispersion+Activation and Enhancement ultrasound insonation.
The left hind limb of the mouse was placed in a water bath with two US transducers poised for insonation of the left thigh. Ultrasound Activation insonation was provided by a VScan clinical ultrasound scanner (GE Healthcare) with a 2 MHz probe for 45 seconds (MI=0.8) starting from the injection time. This was immediately followed by the Enhancement step comprising 5 minutes 500 kHz ultrasound insonation (MI=0.2) using a single element transducer (Imasonic SAS). Thirty minutes after treatment the animals were sacrificed, tissue samples; thigh muscle from the treated (left) leg and thigh muscle from the contra lateral untreated leg, were harvested and Evans Blue content extracted and quantified. The concentration in the treated thigh muscle was divided by the concentration in the untreated thigh muscle for each animal (matched pair) to provide a dimensionless ratio of the increased uptake in the treated muscle. A one-way ANOVA was applied to the data.

[2] = test system: methicillin susceptible strain of Staphylococcus aureus; experiment: Neutropenic staphylococcal thigh infection model, Levofloxacin with or without ACT (Example 3); assay type: in vivo; details: mice, dose-response study, read-out: ED50 (dose that induces a half maximal decline in bacterial density)
Description: An established experimental model of staphylococcal thigh infection in a neutropenic thigh infection model was used and neutropenia will be induced with cyclophosphamide. The thigh infection model provides a sensitive experimental system for initial studies of antimicrobial efficacy in a mammalian system. This model is the most standardised for the evaluation of antimicrobial-microbial interactions combined with antimicrobial pharmacokinetics assessed in serum and tissues samples.
The challenge isolate was methicillin susceptible strain of Staphylococcus aureus is and both thighs were inoculated. Treatment was initiated 2 h after inoculation, thighs was harvested after 26 h and the bacterial density (colony forming units, CFU) in the excised tissue was determined. An initial dose finding study was performed to define the LEV ED50 (the dose that induces a half maximal decline in bacterial density). Within the study, LEV was be dosed intraperitoneal at 20 mg/kg.
The cluster composition investigated was as detailed in Example 1. […]
The bacterial density in the thighs harvested from the various groups was determined by growing a diluted sample of the excised tissue, homogenized in sterile PBS, on a plate with growth medium and counting the number of CFU.

[3] = test system: T. saginata and Taenia solium (pork tapeworm) infection; details: in vivo; cited from earlier work

Cc1cc(-c2ccc(/N=N/c3ccc4c(S(=O)(=O)O)cc(S(=O)(=O)O)c(N)c4c3O)c(C)c2)ccc1/N=N/c1ccc2c(S(=O)(=O)O)cc(S(=O)(=O)O)c(N)c2c1O [EB, Evans Blue]
EB ratio of the left (treated) to right (untreated) thigh muscle, average±SD ([1]; EB 50 mg/kg i.v. + cluster dispersion 2 ml/kg + Activation and Enhancement US insonation): 2.0±0.3 | EB ratio of the left (treated) to right (untreated) thigh muscle, average±SD ([1]; EB 50 mg/kg i.v. + cluster dispersion 2 ml/kg, no US insonation): 1.1±0.2 | increase in the uptake upon ACT treatment [1]: about 100% | increase in the uptake upon ACT treatment ([1]; listed as Evans Blue): 100%

C[C@H]1COc2c(N3CCN(C)CC3)c(F)cc3c(=O)c(C(=O)O)cn1c23 [LEV, Levofloxacin]
ED50 [2]: ~24 mg/kg

O=C(Nc1ccc([N+](=O)[O-])cc1Cl)c1cc(Cl)ccc1O [Niclosamide]
cure rates [3]: approximately 90%
